From patent publication US20140162966A1, “NANOPARTICLES FOR DELIVERY OF LIGANDS” (The U.S.A, as represented by the Secretary, Department of …, priority 2012, published 2014)

Experiments:
[1] = test system: 4T1-fluc cells; assay: cellular uptake of Cy3-labeled siRNA; assay type: cell-based
Description: CD44 expression was confirmed by flow cytometry. The red fluoresecence from Cy3-labeled siRNA was more intense in 4T1-fluc cells that were treated with siRNA/HADPA-Zn-NPs than in the cells that were treated with Lipofectamine 2000 (Lipo2K)/siRNA. […] Furthermore, the uptake of siRNA/HADPA-Zn-NPs into 4T1-fluc cells was 3.7±0.5-fold higher than the uptake into 293T cells.

[2] = test system: subcutaneous 4T1-fluc tumors; assay: in vivo gene silencing in 4T1-fluc xenograft mouse model (in vivo BLI); set-up: species or system Balb/C mice; details: 72 hours after intratumor injection; siLuc 100 pmol and/or NPs 200 ug in 80 uL
Description: Four groups of Balb/C mice (n=5 per group) with subcutaneous 4T1-fluc tumors were treated with an intratumor injection of 80 uL of a buffer solution that contained siLuc/HADPA-Zn-NPs (100 pmol/200 ug), HADPA-Zn-NPs (200 ug), naked siLuc (100 pmol), or phosphate-buffered saline (PBS). The silencing of the fluc gene was measured by in vivo BLI. […] In contrast the control groups had increased levels of fluc expression ((30.0±4.1) %, (38.2±3.9)%, and (39.2±5.3)%, for HADPA-Zn-NPs, naked siRNA, and PBS, respectively, FIG. 8). The tumors from each group were harvested and weighed after BLI to determine whether the apparent gene silencing effect was a result of a reduction in the volume of the tumors as a consequence of the toxicity of the formulation. As shown by the […] testing, there was no significant difference in the neoplastic weights of the tumors between the various groups.

Zn-dipicolylamine [Zn-DPA]
fluorescence observed in treated cells [1]: no fluorescence was observed

naked siRNA: siRNA that targets the firefly luciferase gene, SEQUENCE ID NO. 1 and 2, without carrier (chain 1 GCACUCUGAUUGACAAAUACGAUUU; chain 2 AAAUCGUAUUUGUCAAUCAGAGUGC; listed as RNA, chemistry not given here)
relative level of fluc expression [2]: 38.2±3.9%
